Measurements reported in paper PMC5947527 (Chemical Science, 2015).
Entries after “also recorded” stand apart in the source; their conditions may differ. Non-standard residues stand in square brackets, D forms with d. Residues, ends and D or L forms follow the SMILES beside them. *: point of attachment. NBD = O=[N+]([O-])c1ccc(*)c2nonc12; Nle = CCCC[C@H](N)C(=O)O; Ahx = NCCCCCC(=O)O

What was measured:
[1] = Chemical stability on storage in phosphate buffered saline at 37 °C (HPLC); assay type: physicochemical; conditions: 1 mg mL–1 in PBS, day 0 vs day 3, HPLC, detection at 380 nm
Description: This modification is particularly of relevance due to the expected in vivo inflammatory oxidative environment within an infected pneumonic lung due to infiltrating host inflammatory cells such as neutrophils,[13] and therefore all subsequent modifications incorporated Nle in place of Met.
HPLC chromatograms (gradient acetonitrile + 0.1% formic acid/water + 0.1% formic acid from 5/95 to 95/5 over 10 min, then isocratic for 4 min; detection at 380 nm). UBI-2 (1 mg mL^–1 in PBS, upper panels) and UBI-3 (1 mg mL^–1 in PBS, lower panels) at (A) day 0 and (B) day 3 after incubation at 37 °C.

[2] = tested on: methicillin-sensitive Staphylococcus aureus (MSSA), Pseudomonas aeruginosa and Klebsiella pneumoniae; assay: Confocal bacterial labelling, UBI-2 vs UBI-3 on a panel of bacteria; assay type: cell-based; conditions: fluorescence normalised to UBI-2, mean ± SEM, n ≥ 3
Description: Fig. 3 UBI-3 retains specificity and sensitivity for bacterial labelling. […] Panels show bacteria labelled with either UBI-2 or UBI-3 with quantification of fluorescence (values normalised to UBI-2) (Bars represent mean, error bars represent standard error of mean, n ≥ 3, ns = not significant, scale bar = 10 μm). (B) Quantification from confocal images of UBI-3 (10 μM) imaging a panel of bacteria (statistical analyses shown compared to unlabelled bacteria, n ≥ 3 for each bacteria, *** = p < 0.001). […] [MRSA: methicillin-resistant Staphylococcus aureus, MSSA: methicillin-sensitive Staphylococcus aureus]. […]
(§1) Confocal Analysis and Fluorescence Quantification: 8-Well Lab-Tek II Confocal Chambers (VWR, PA, USA) were coated in fibronectin (for neutrophil experiments) or poly-d-lysine (for bacteria) at 37 °C for 20 minutes, then washed in PBS prior to bacterial innoculation. […] Exposure to 488 nm light was limited to 5% of the maximum laser power in order to minimize toxicity. ‘Green’ fluorescence (for FAM and NBD) was excited with a dedicated 488 nm line and emitted light detected with meta detector (500-530 nM).
(§2) Syto nuclear and dyes were excited with a dedicated 543 nm line, and emitted light detected with meta detector (570-610 nM). Fields of view were chosen based on the counterstain and at least three fields of view were recorded for each condition. […]

P. aeruginosa = assay: Confocal labelling of bacteria in the presence of human ARDS BALF; assay type: cell-based; conditions: 10 μM, n = 3 PBS, n = 5 ARDS, p < 0.001
Text: To determine the ability of UBI-3 to image bacteria in the continued presence of a complex inflammatory environment, bacteria were labelled with UBI-3 in the presence of broncho-alveolar lavage fluid (BALF) retrieved from ventilated ICU patients with Acute Respiratory Distress Syndrome (ARDS). ARDS BALF was utilised as ARDS is a severe life threatening pulmonary syndrome, characterized by a massive proteolytic and oxidative inflammatory environment within the distal alveolar region.[14] […] To design out susceptible amino acid cleavage points, a number of modifications were made (Table 1) and the functional consequences assessed. […]
as §1, §2

CCCC[C@H](NC(=O)[C@H](CCCNC(=N)N)NC(=O)[C@H](CCCNC(=N)N)NC(=O)[C@H](CCCCN)NC(=O)[C@H](C)NC(=O)[C@H](CCCNC(=N)N)NC(=O)CNC(=O)[C@@H](NC(=O)CCCCCNc1ccc([N+](=O)[O-])c2nonc12)[C@@H](C)O)C(=O)N[C@@H](CCC(N)=O)C(=O)N[C@@H](Cc1ccc(O)cc1)C(=O)N[C@@H](CC(N)=O)C(=O)N[C@@H](CCCNC(=N)N)C(=O)N[C@@H](CCCNC(=N)N)C(N)=O [UBI-3] ({NBD-Ahx}-TGRAKRR[Nle]QYNRR-NH2)
chemical stability in PBS at 37 °C [1]: prevented by substitution of the Met to Nle
bacterial labelling, Met vs Nle variant [2]: retained bacterial labelling; also recorded: same fluorescence intensity
fluorescent labelling intensity of bacteria in ARDS BALF compared to PBS (P. aeruginosa): significant reduction in the fluorescent labelling intensity; also recorded: significantly reduced intensity when compared to PBS
